From patent US11241475B2, “Preventive and/or therapeutic agent for osteogenesis imperfecta and other diseases” (Pharma Foods International Co., Ltd., priority 2016, dated 2022)

Assays:
[1] = test system: mouse osteoblast-like cell line MC3T3-E1 Subclone-4; test: Proliferation-promoting activity on osteoblastic precursor cells (BrdU uptake); assay type: cell-based
Experimental: The mouse osteoblast-like cell line MC3T3-E1 Subclone-4 (ATCC No. CRL-2593) was cultured in α-MEM medium supplemented with 10% FBS at 37° C. in 5% CO2-95% air to subconfluence. The cells were collected by trypsinization. The collected cells were suspended at 5×10^4 cells/mL in fresh α-MEM medium with the same supplement. One hundred microliters of the cell suspension was seeded in each well of a 96-well plate, and precultured at 37° C. in 5% CO2-95% air. On the next day, the medium was replaced with α-MEM medium containing the sample dissolved therein with a supplement of 0.1% FBS. The cells were further cultured for 24 hours. The proliferative activity of the osteoblastic precursor cells was assessed by measuring the amount of BrdU uptake. The proliferation-promoting activity of the sample on the osteoblastic precursor cells was expressed as a value relative to the proliferation level of the cells in the absence of the sample, which was taken as 100.

[2] = test system: mouse chondrogenic cell line ATDC5; test: Proliferation-promoting activity on chondrogenic cells (BrdU uptake); assay type: cell-based; conditions: ATDC5, 24 hours, relative to absence of sample = 100, FIGS. 5 and 6
Experimental: The mouse chondrogenic cell line ATDC5 (RCB0565) was cultured in DMEM/F-12 medium supplemented with 5% FBS, 3×10-8 M sodium selenite and 5 μg/mL human transferrin at 37° C. in 5% CO2-95% air to subconfluence. The cells were collected by trypsinization. The collected cells were suspended at 5×10^4 cells/mL in fresh DMEM/F-12 medium with the same supplements. One hundred microliters of the cell suspension was seeded in each well of a 96-well plate, and precultured at 37° C. in 5% CO2-95% air. On the next day, the medium was replaced with DMEM/F-12 medium containing the sample dissolved therein with a supplement of 3×10^−8 M sodium selenite and 5 μg/mL human transferrin. The cells were further cultured for 24 hours. The proliferative activity of the chondrogenic cells was assessed by measuring the amount of BrdU uptake. The proliferation-promoting activity of the sample on the chondrogenic cells was expressed as a value relative to the proliferation level of the cells in the absence of the sample, which was taken as 100.

[3] = test system: insulin-like growth factor (IGF-1); test: Promoting effect on IGF-1 production after single oral dose (Example 8); assay type: in vivo; conditions: rats
Experimental: The synthetic peptide No. 1 or No. 2 or water for injection (control) was orally administered as a single dose to male Wistar rats at the age of four weeks by using a gastric tube (n=6 in each group). The dosage of the synthetic peptide No. 1 or No. 2 was 10 mg/kg. The blood was collected from the tail before administration and 30, 45, 60 and 90 minutes after administration, and the serum was separated. At 120 minutes after administration, the whole blood was collected from the abdominal vena cava under anesthesia and the rats were euthanized (see FIG. 25). The concentration of IGF-1 in the serum was measured by ELISA (Mouse/Rat IGF-I Quantikine ELISA Kit (MG100), R&D Systems, Inc.).
(§1) The concentration dependence of the synthetic peptides was examined. The synthetic peptide No. 1 was orally administered as a single dose of 1, 5 or 10 mg/kg (n=6 in each group). At 60 minutes after administration, the rats were euthanized under anesthesia, and the liver was harvested. The concentration of IGF-1 in the serum and liver was measured. For the serum IGF-1 concentration, the difference (Δ value) before and after administration was also determined.
as §1, with “The” for “The concentration dependence of the synthetic peptides was examined. The”, “No. 2” for “No. 1”, “administered to the rats” for “administered”, “of 0.1, 1” for “of 1, 5”, “At 45” for “At 60”

[4] = test system: insulin-like growth factor (IGF-1); test: IGF-1 production: peptide No. 2 versus reverse sequence and constituent amino acids (Example 9); assay type: in vivo; conditions: rats, single oral dose 10 mg/kg, 45 minutes, groups No. 2, R-No. 2, AA, control
Experimental: The synthetic peptide No. 2, a peptide consisting of a reverse sequence of the peptide No. 2 (SEQ ID NO: 3; herein also called R-No. 2), constituent amino acids of the synthetic peptide No. 2 (herein also called AA), or water for injection (control) was orally administered as a single dose to male Wistar rats at the age of four weeks by using a gastric tube (n=6 in each group). The dosage of the synthetic peptide, the reverse sequence peptide and the constituent amino acids was 10 mg/kg. At 45 minutes after administration, the rats were euthanized under anesthesia, and the liver was harvested. The concentration of IGF-1 in the serum and liver was measured by ELISA (Mouse/Rat IGF-I Quantikine ELISA Kit (MG100), R&D Systems, Inc.). For the serum IGF-1 concentration, the difference (Δ value) before and after administration was also determined.

male Crlj:WI rats [5] = test: Bone growth-promoting effect on rats in the growth phase, seven days (Example 3); assay type: in vivo; conditions: hGH 500 μg/kg/day subcutaneous, versus control group
Experimental: The synthetic peptide No. 1 or water for injection (control) was administered to male Crlj:WI rats at the age of four weeks by oral gavage using a gastric tube once a day for seven days (n=10 in each group). The dosage of the synthetic peptide was 1, 10 or 100 mg/kg/day. As a positive control, human growth hormone (hGH) (Norditropin, Japan Standard Commodity Classification Number: 872412) was subcutaneously administered at 500 μg/kg/day once a day for seven days. As fluorescent labels for the bone formation site, tetracycline (20 mg/kg) was subcutaneously administered on day 4 after the administration of the peptide or controls, and then calcein (10 mg/kg) was subcutaneously administered on day 6 after the administration of the peptide or controls. After the administration of the sample on day 7, the rats were kept under fasting conditions. […] Undecalcified specimens of the proximal tibia were prepared and photographed under a fluorescent microscope (BX-53, Olympus Corporation), and the bone morphology was measured using a morphometry system (Histometry RT digitizer, System Supply Co., Ltd.). The longitudinal growth rate (Lo.G.R.) of the growth plate per day was determined by measuring the distance between the tetracycline and calcein labels and dividing the distance by the time interval between the administrations of the two fluorescent labels (two days).

male Crlj:WI rats [6] = test: Osteogenesis-promoting effect on growth plate and secondary cancellous bone, 21 days (Example 5); assay type: in vivo; conditions: peptide 100 mg/kg/day oral, hGH 500 μg/kg/day subcutaneous, versus control group, FIG. 14
Experimental: The synthetic peptide No. 1 or water for injection (control) was administered to male Crlj:WI rats at the age of four weeks by oral gavage using a gastric tube once a day for 21 days. The dosage of the synthetic peptide was 100 mg/kg/day. As a positive control, human growth hormone (hGH) was subcutaneously administered at 500 μg/kg/day once a day for 21 days. As fluorescent labels for the bone formation site, tetracycline (20 mg/kg) was subcutaneously administered on day 18 after the administration of the peptide or controls, and then calcein (10 mg/kg) was subcutaneously administered on day 20 after the administration of the peptide or controls. After the administration of the sample on day 21, the rats were kept under fasting conditions. […] Undecalcified specimens of the proximal tibia were prepared and photographed under a fluorescent microscope (BX-53, Olympus Corporation), and the bone morphology was measured using a morphometry system (Histometry RT digitizer, System Supply Co., Ltd.) and an analysis software (CSS-840 cancellous bone morphometry version, System Supply Co., Ltd.). The longitudinal growth rate (Lo.G.R.) of the epiphyseal plate per day was determined by measuring the distance between the tetracycline and calcein labels and dividing the distance by the time interval between the administrations of the two fluorescent labels (two days).

male Crlj:WI rats [7] = test: Calcification rate and morphometry in secondary cancellous bone, seven days (Example 6); assay type: in vivo; conditions: peptide 1, 10 or 100 mg/kg/day oral, hGH 500 μg/kg/day subcutaneous, versus control group, FIG. 18
Experimental: The synthetic peptide No. 1 or water for injection (control) was administered to male Crlj:WI rats at the age of four weeks by oral gavage using a gastric tube once a day for seven days (n=10 in each group). The dosage of the synthetic peptide was 1, 10 or 100 mg/kg/day. As a positive control, human growth hormone (hGH) (Norditropin, Japan Standard Commodity Classification Number: 872412) was subcutaneously administered at 500 μg/kg/day once a day for seven days. As fluorescent labels for the bone formation site, tetracycline (20 mg/kg) was subcutaneously administered on day 4 after the administration of the peptide or controls, and then calcein (10 mg/kg) was subcutaneously administered on day 6 after the administration of the peptide or controls. After the administration of the sample on day 7, the rats were kept under fasting conditions. […] Undecalcified specimens of the proximal tibia were prepared and photographed under a fluorescent microscope (BX-53, Olympus Corporation), and the bone morphology was measured using a morphometry system (Histometry RT digitizer, System Supply Co., Ltd.). The daily calcification rate (mineral apposition rate) was determined by measuring the distance between the tetracycline and calcein labels in the secondary cancellous bones and dividing the distance by the time interval between the administrations of the two fluorescent labels (two days).

[8] = Effect on body weight (Example 7); assay type: in vivo; conditions: rats, days 1, 3, 5 and 7; peptide 1, 10 or 100 mg/kg/day oral, hGH 500 μg/kg/day subcutaneous; FIG. 24
Experimental: The synthetic peptide No. 1 or water for injection (control) was administered to male Crlj:WI rats at the age of four weeks by oral gavage using a gastric tube once a day for seven days (n=10 in each group). The dosage of the synthetic peptide was 1, 10 or 100 mg/kg/day. As a positive control, human growth hormone (hGH) (Norditropin, Japan Standard Commodity Classification Number: 872412) was subcutaneously administered at 500 μg/kg/day once a day for seven days. The body weight was measured on days 1, 3, 5 and 7 of administration.

## Val-Asn-Pro-Glu (VNPE) [synthetic peptide No. 2]
[1]; MC3T3-E1, 24 hours, BrdU uptake, relative to absence of sample = 100, FIGS. 3 and 4
  proliferation-promoting activity on osteoblastic precursor cells: promoted the proliferation
[1]; MC3T3-E1, BrdU uptake
  concentration at which the proliferation-promoting effect is exhibited: sufficiently exhibited its effect at a low concentration
[1]; MC3T3-E1, BrdU uptake, No. 2 versus No. 1
  proliferation-promoting activity on osteoblastic precursor cells, comparison between the peptides: higher activity than the synthetic peptide No. 1
[2]
  proliferation-promoting activity on chondrogenic cells: promoted the proliferation
[3]; single oral dose 10 mg/kg, at 45 and 60 minutes after administration, versus control, FIG. 27
  concentration of IGF-1 in the serum (time course): significantly higher
[3]; single oral dose 0.1, 1 or 10 mg/kg, 45 minutes
  dose dependence of IGF-1 concentration in the serum and liver: increased in a dose-dependent manner
[3]; single oral dose 0.1, 1 or 10 mg/kg, 45 minutes after administration, versus control group, FIG. 30
  concentration of IGF-1 in the serum: significantly higher
[3]; single oral dose 0.1, 1 or 10 mg/kg, 45 minutes after administration, versus control group, FIG. 31
  concentration of IGF-1 in the liver: significantly higher
[4]; FIG. 32
  concentration of IGF-1 in the serum: significantly higher
[4]; FIG. 33
  concentration of IGF-1 in the liver: significantly higher

## hGH: human growth hormone (hGH) (Norditropin), positive control, subcutaneously administered
Male Crlj:WI rats [5]; peptide 10 mg/kg/day oral, FIG. 9
  area of the hypertrophic cartilage layer: significantly larger
Male Crlj:WI rats [5]; peptide 1, 10 or 100 mg/kg/day oral, FIG. 8
  longitudinal growth rate (Lo.G.R.) of the growth plate per day: significant promotion of bone growth
Male Crlj:WI rats [6]
  longitudinal growth rate (Lo.G.R.) of the epiphyseal plate per day: significant promotion of bone growth
Male Crlj:WI rats [7]
  calcification rate (mineral apposition rate) in the secondary cancellous bone: significant increase
[8]
  change in the body weight: No significant change
